{"source": "patent US20040103453A1", "about": "“Lipoxygenase genes, promoters, transit peptides and proteins thereof” (priority 2000, published 2004)", "key": {"[1]": {"system": "RLL2 transcripts", "experiment": "RNA gel blot probed with rice LOX cDNA RLL2", "assay_type": "in vivo", "conditions": "RNA from treated rice plants"}, "[2]": {"system": "RCI-1 transcripts", "experiment": "RNA gel blot (Northern) analysis of RCI-1 transcripts in treated rice leaves", "assay_type": "in vivo, Oryza sativa cv. Kusabue", "conditions": "for RCI-1 transcript (mRNA) accumulation: RNA from chemically treated rice leaves, INA and BTH sprayed onto leaves, probenazole by soil drench"}, "[3]": {"system": "L-2 transcripts", "experiment": "RNA gel blot probed with rice LOX cDNA L-2", "assay_type": "in vivo", "conditions": "RNA from treated rice plants"}, "[4]": {"system": "lipoxygenase (LOX) enzyme activity in rice leaves", "experiment": "LOX enzyme activity in BTH-treated rice leaves", "assay_type": "in vivo, Oryza sativa cv. Kusabue", "conditions": "between 24 and 48 h after BTH treatment"}, "[5]": {"system": "rice blast disease", "conditions": "treatment of rice; cited from earlier work"}, "[6]": {"system": "lipoxygenase (LOX, linoleate:oxygen oxidoreductase, EC 1.13.11.12)", "conditions": "treatment of rice; cited from earlier work"}, "[7]": {"experiment": "HPLC analysis of reaction products of recombinant RCI-1", "conditions": "linoleic acid or linolenic acid as substrate, 0.1 M Tris-HCl pH 8.8, 20 min, 30° C.", "procedure": "Lipoxygenase activity is measured at 30° C. photospectrometrically at 234 nm using linoleic acid as a substrate and 5-20 μl from the recombinant RCI-1 enzyme extract (Bohland et al. (1997) Plant Physiol. 114, 679-685). For determination of the pH optimum, different buffers with overlapping pH ranges (pH 4-6: 0.1 M Na-acetate; pH 6-8: 0.1 M Na-phosphate; pH 8-10: 0.1 M Tris-HCl) are used. The molar extinction coefficient of the reaction product, 2.5×10^7 cm^−1 mol^−1, is used for the calculation of the enzyme activity. […] The products of the enzymatic activity of the RCI-1 protein are analyzed by HPLC (Bohland et al. (1997) Plant Physiol. 114, 679-685). Approximately 0.2 nkat enzyme activity obtained from recombinant RCI-1 protein is incubated with 50 μl substrate solution (10 μl of linoleic or α-linolenic acid, respectively; 20 μl ethanol, 20 μl H2O) in 2 ml 0.1 M Tris-HCl pH 8.8 for 20 min. at 30° C. The reaction is stopped by lowering the pH to 3.0 with diluted HCl, and the hydroperoxides are extracted with 1 ml of CHCl3 followed by two washes with water. […] Products are detected at 234 nm and standards are obtained from Biomol (Hamburg, Germany) or prepared from linoleic or α-linolenic acid by incubation with soybean lipoxygenase, respectively, as described (Bohland et al. (1997) Plant Physiol. 114, 679-685)."}, "[8]": {"experiment": "Photospectrometric lipoxygenase activity of recombinant RCI-1 enzyme extract", "conditions": "linoleic acid as substrate", "procedure": "Production of recombinant RCI-1 protein is induced by addition of 1 mM IPTG (final concentration) to a 250 ml E. coli M15 culture grown to an OD600 of 1 and further incubation on a shaker overnight at 19° C. The cells are harvested by centrifugation (5000 g, 10 minutes) and resuspended in 5 ml lysis buffer (50 mM Na-phosphate buffer pH 7.5 containing 1 mg l-1 lysozyme). After a 30 minute incubation on ice, the lysate is centrifuged (12000 g, 15 minutes) and the pellet is transferred into a mortar and ground in extraction buffer (0.1 M K-phosphate buffer pH 7, 30 mg polyvinyl-poly-pyrrolidone, 1 mM EDTA). After centrifugation, the clear supernatant is used as an enzyme preparation for further biochemical analysis.\nLipoxygenase activity is measured at 30° C. photospectrometrically at 234 nm using linoleic acid as a substrate and 5-20 μl from the recombinant RCI-1 enzyme extract (Bohland et al. (1997) Plant Physiol. 114, 679-685). For determination of the pH optimum, different buffers with overlapping pH ranges (pH 4-6: 0.1 M Na-acetate; pH 6-8: 0.1 M Na-phosphate; pH 8-10: 0.1 M Tris-HCl) are used. The molar extinction coefficient of the reaction product, 2.5×10^7 cm^−1 mol^−1, is used for the calculation of the enzyme activity."}, "[9]": {"conditions": "rice leaves treated with INA, time course, RNA gel blot"}}, "note": "Entries after “also recorded” stand apart in the source; their conditions may differ.", "data": [{"molecule": "O=C(O)c1cc(Cl)nc(Cl)c1", "note": "[INA, 2,6-dichloroisonicotinic acid]", "values": [{"measurement": "RLL2 transcript accumulation", "setting": "[1]", "result": "do not accumulate"}, {"measurement": "RCI-1 transcript (mRNA) accumulation", "setting": "[2]", "result": "strong hybridization signal"}, {"measurement": "time after treatment at which RCI-1 transcripts reach maximal levels", "setting": "[2]; [9]", "result": "24 to 48", "unit": "h"}, {"measurement": "time after treatment at which RCI-1 transcripts start to accumulate", "setting": "[2]; [9]", "result": 8, "unit": "h"}, {"measurement": "L-2 transcript accumulation", "setting": "[3]", "result": "do not accumulate"}]}, {"molecule": "CC/C=C\\C[C@H]1C(=O)CC[C@@H]1CC(=O)O", "note": "[jasmonic acid]", "values": [{"measurement": "RCI-1 transcript levels", "setting": "[2]; 7 to 12 h after spraying of a 1 mM solution onto rice leaves", "result": "strongly increase"}, {"measurement": "RCI-1 transcript (mRNA) accumulation", "setting": "[2]", "result": "strong hybridization signal"}]}, {"molecule": "CSC(=O)c1cccc2nnsc12", "note": "[BTH, benzo(1,2,3)thiadiazole-7-carbothioic acid S-methyl ester]", "values": [{"measurement": "RLL2 transcript accumulation", "setting": "[1]", "result": "do not accumulate"}, {"measurement": "RCI-1 transcript (mRNA) accumulation", "setting": "[2]", "result": "induces RCI1 transcript accumulation; also recorded: strong hybridization signal"}, {"measurement": "L-2 transcript accumulation", "setting": "[3]", "result": "do not accumulate"}, {"measurement": "LOX enzymatic activity in rice leaves", "setting": "[4]", "result": "significant increase"}]}, {"molecule": "C=CCOC1=NS(=O)(=O)c2ccccc21", "note": "[probenazole]", "values": [{"measurement": "RLL2 transcript accumulation", "setting": "[1]", "result": "do not accumulate"}, {"measurement": "RCI-1 transcript (mRNA) accumulation", "setting": "[2]", "result": "induces RCI1 transcript accumulation; also recorded: strong hybridization signal"}, {"measurement": "time course of RCI-1 mRNA accumulation", "setting": "[2]; probenazole soil drench, compared with INA and BTH spraying", "result": "delayed time course"}, {"measurement": "L-2 transcript accumulation", "setting": "[3]", "result": "do not accumulate"}]}, {"molecule": "N#CCNC(=O)c1ccnc(Cl)c1", "note": "[N-cyanomethyl-2-chloroisonicotinamid]", "values": [{"measurement": "resistance inducing activity against rice blast disease", "setting": "[5]", "result": "good resistance inducing activity"}, {"measurement": "induction of the enzyme lipoxygenase", "setting": "[6]", "result": "induced the enzyme lipoxygenase"}]}, {"molecule": "RCI-1: rice lipoxygenase protein of 922 amino acids (SEQ ID NO:7) encoded by RCI-1 cDNA, expressed recombinantly in E. coli (protein, listed as Oryza sativa) MLTATQTLAPAVLSRSHGAPSSFSSQPRRTAAAASRVSCTRVGALSEVVNGELVVGDQEQTTDDLLTRHKNVVADYTLSATVTVSLKQDDSTPQKVADMVNRDWLFLDFFSSHIEGMHTEPQLARYSHMDGKGSFIYEASFSIPSSLDAVGAVQVVNRYSSEVYISDIDVHLCGGRHQWTDITFHCNSWIDYNPNDQRFFFPLKSYLPSQTPRGVKNLRKEELRAIRGDGRGERKEWERIYDYDVYNDLGDPDNDPATRRPVLGGRGRPYPRRCRTGRRRCRTDPSSESPPAKDGAGIYVPRDEAFTERKAGAFATKKALSALSAFTTAQRVSGDRRRGFPSLAAIDALYEDGYKNRPSSSQQEADNLEGYFREVLQKQVKLLLKGEKEEFKEELRKVFKFQTPEIHDKDKLAWFRDEEFARQTLAGMNPLSIQLVRDTDFPIFSKLDEETYGPGDSLITKELIEEQINGVMTAEEAVEKKKLFMLDYHDVLLPFVHAVRELDDTTLYASRTLFFLTEDGTLRPIAIELTRPKSPNTPQWRQVFTPGSSVAASWLWQLAKTHVLAHDTGYHQLVSHWLRTHCCVEPYVIAANRRLSQMHPIYRLLHPHFRFTMEINAQARGMLINANGIIESAFAPGKLCMELSSAVYDKFWRFDMEALPADLIRRGMAIECEDGKLELTIEDYPYANDGLLIWDSIKEWVSDYVNHYYQLASDIHMDKELQGWWNEVRTKGHPDKEEGWPELNCHGSLVEVLTTIIWVASGHHAAVNFGQYPYAGYFPNRPTIARRNMPTEGQACSHDGMQPTFVEDPVRVLLDTFPSQYQTTLVLPVLNLLSSHSPGEEYMGTHAESAWMADREVRAAFGRFNERMMSIAEMIDCRNKDPERKNRQGPGVVPYVLLKPSYGDPKDMTSVMEMGIPNSISI", "values": [{"measurement": "reaction product (9S)-hydroperoxy-(10E,12Z,15Z) octadecatrienoic acid (9-HPOD)", "setting": "[7]", "result": "only detected in minor amounts"}, {"measurement": "reaction product (13S)-hydroperoxy-(9Z,11E,15Z)-octadecatrienoic acid (13-HPOD)", "setting": "[7]", "result": "predominant product"}, {"measurement": "LOX activity of crude E. coli extract", "setting": "[8]; 30° C., 234 nm, control extracts no detectable LOX activity", "result": "increased LOX activity"}, {"measurement": "pH of maximal LOX activity", "setting": "[8]; buffers pH 4-10", "result": "8 to 9", "unit": "pH"}]}]}
